“Also recorded” adds a separate entry of the source.

Series [1] has as its target T1, CYP2C9 (Homo sapiens, UniProt P11712). The experiment in a line: UV difference spectroscopy of binding and substrate titrations with purified 2C9. The note with it: UV difference spectra 350-500 nm.
Series [2] deals with T1, CYP2C9. The experiment in a line: EPR studies on binding modes with ferric 2C9. The note with it: ferric 2C9 18.5 μM, substrate 1 mM, 20 K.
Series [3] has as its target T1, CYP2C9. The experiment in a line: Reconstituted purified 2C9 system inhibition. The series is classed as biochemical.

T1 sequence (P11712 whole entry): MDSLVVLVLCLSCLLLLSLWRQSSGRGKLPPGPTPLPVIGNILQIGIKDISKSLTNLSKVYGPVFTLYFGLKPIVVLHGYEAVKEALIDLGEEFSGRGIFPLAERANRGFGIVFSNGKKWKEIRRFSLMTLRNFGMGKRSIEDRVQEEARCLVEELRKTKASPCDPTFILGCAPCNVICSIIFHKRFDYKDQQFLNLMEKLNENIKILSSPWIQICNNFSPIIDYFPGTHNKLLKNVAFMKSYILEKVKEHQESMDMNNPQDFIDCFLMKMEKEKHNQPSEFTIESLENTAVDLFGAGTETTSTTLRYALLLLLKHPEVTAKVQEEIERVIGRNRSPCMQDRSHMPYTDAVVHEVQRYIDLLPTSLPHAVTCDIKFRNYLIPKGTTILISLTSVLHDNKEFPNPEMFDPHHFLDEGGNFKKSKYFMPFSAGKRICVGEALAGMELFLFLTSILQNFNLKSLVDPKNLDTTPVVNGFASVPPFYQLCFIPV

As to `O=C(Nc1ccccc1)c1cc(-c2cccnc2)nc2ccccc12` [Compound 14, N-phenyl-2-(pyridin-3-yl)quinoline-4-carboxamide], the “Binding Type UV” value in series [1] is “mixed Type II and Type I binding modes”.

As to `O=C(Nc1ccc2ccccc2c1)c1cc(-c2ccccn2)nc2ccccc12` [Compound 9, N-(naphthalen-2-yl)-2-(pyridin-2-yl)quinoline-4-carboxamide], the “Binding Type EPR” value in series [2] is reported as “Type I”. For the molecule `O=C(Nc1ccc2ccccc2c1)c1cc(-c2ccncc2)nc2ccc(Cl)cc12` [Compound 19, 6-chloro-N-(naphthalen-2-yl)-2-(pyridin-4-yl)quinoline-4-carboxamide], the “Binding Type EPR” value in series [2] is “low-spin shift; also recorded: mixed mode; also recorded: Type II/Type I”. Consider `O=C(Nc1ccccc1)c1cc(-c2ccccn2)nc2ccccc12` [Compound 15, N-phenyl-2-(pyridin-2-yl)quinoline-4-carboxamide], for which, in series [1], the “Binding Type UV” value was “does not give a either a Type I or Type II binding spectra”. Consider `Cc1cc(C)c2nc(-c3ccccn3)cc(C(=O)Nc3ccc4ccccc4c3)c2c1` [Compound 18, 6,8-dimethyl-N-(naphthalen-2-yl)-2-(pyridin-2-yl)quinoline-4-carboxamide], for which the “Binding Type EPR” value in series [2] is given as “Type I”. With `Cc1cc(C)c2nc(-c3cccnc3)cc(C(=O)Nc3ccc4ccccc4c3)c2c1` [Compound 17, 6,8-dimethyl-N-(naphthalen-2-yl)-2-(pyridin-3-yl)quinoline-4-carboxamide], in series [2], the “Binding Type EPR” value is reported as “Type I”. Same read-out and setting: with `O=C(Nc1ccc2ccccc2c1)c1cc(-c2ccncc2)nc2ccccc12` [Compound 7, N-(naphthalen-2-yl)-2-(pyridin-4-yl)quinoline-4-carboxamide] the entry was “low-spin shift; also recorded: pure Type II”; with `O=C(Nc1ccc2ccccc2c1)c1cc(-c2cccnc2)nc2ccccc12` [Compound 8, N-(naphthalen-2-yl)-2-(pyridin-3-yl)quinoline-4-carboxamide], “Type I”. Consider `O=C(c1cc(-c2cccnc2)nc2ccccc12)N1CCCCC1` [Compound 2, Piperidin-1-yl(2-(pyridin-3-yl)quinolin-4-yl)methanone], for which the “Binding Type UV” value in series [1] is “mixed Type I and Type II binding”. Also, the “Binding Type EPR” value in series [2] was “Type I”. What is called Ki is the dissociation constant of the complex between target and ligand, obtained from inhibition or displacement. Higher therefore signals a looser hold on the target. `O=C(Nc1ccccc1)c1cc(-c2ccncc2)nc2ccccc12` [Compound 13, N-phenyl-2-(pyridin-4-yl)quinoline-4-carboxamide] showed a Ki in series [3] of 79.8 nM. For the same molecule, the “Binding Type UV” value in series [1] is recorded as “clear Type II binding spectra; also recorded: typical Type II binding spectra”. `O=C(c1cc(-c2ccncc2)nc2ccccc12)N1CCCCC1` [Compound 1, Piperidin-1-yl(2-(pyridin-4-yl)quinolin-4-yl)methanone]: the “Binding Type UV” value in series [1] is “typical Type II binding spectra”. Besides, the “Binding Type EPR” value in series [2] is listed as “Type II”.

The record behind these values is paper PMC2630467 (Journal of medicinal chemistry, 2008).
